Source: ChEMBL document CHEMBL1156244, “Recent advances in the identification of gamma-secretase inhibitors to clinically test the Abeta oligomer hypothesis of Alzheimer's disease” (J Med Chem, 2009)
Blank lines part the entries; values can stand above or below the compound they belong to.

Legend:
[1] = Inhibition of gamma secretase-mediated amyloid beta (1 to 40) production
Mus musculus [2] = test: Inhibition of gamma secretase-mediated amyloid beta production in transgenic CRND8 mouse plasma at 10 mg/kg, po; assay type: functional
Mus musculus [3] = test: Inhibition of gamma secretase-mediated amyloid beta (1 to 40) production in brain of transgenic 2576 mouse at 200 umol/kg, po; assay type: functional
Mus musculus [4] = test: Inhibition of gamma secretase-mediated total amyloid beta production in CNS of transgenic 2576 mouse at 200 umol/kg, po; assay type: functional; set-up: scale not given: the % may be the effect or the level left
[5] = Clearance in mouse microsomes assessed per gram of protein; assay type: ADME, Liver, Microsome
Gamma-secretase [6] = test: Inhibition of human gamma secretase-mediated amyloid beta (1 to 40) production expressed in CHO cells; assay type: cell-based
Mus musculus [7] = test: Inhibition of gamma secretase-mediated amyloid beta (1 to 40) production in brain of po dosed transgenic 2576 mouse by sandwich ELISA; assay type: functional
[8] = Inhibition of gamma secretase-mediated amyloid beta (1 to 40) production by cell-free assay
Gamma-secretase [9] = test: Inhibition of gamma secretase-mediated amyloid beta (1 to 40) production in human SH-SY5Y cells; assay type: cell-based
Gamma-secretase [10] = test: Displacement of [3H]5-chloro-N-((2S,3R)-5,5,5-trifluoro-1-hydroxy-3-methylpentan-2-yl)thiophene-2-sulfonamide from gamma secretase in human SH-SY5Y cells by competitive binding assay; assay type: cell-based
Homo sapiens [11] = test: Inhibition of gamma secretase-mediated total amyloid beta production in human plasma at 140 mg/kg measured at 6 hrs post-dose; assay type: functional
Homo sapiens [12] = test: Inhibition of gamma secretase-mediated amyloid beta (1 to 40) production in plasma of patient with Alzheimer's disease at 40 mg/kg QD for 6 weeks; assay type: functional; settings: 1008 h
Homo sapiens [13] = test: Inhibition of gamma secretase-mediated total amyloid beta production in human CSF at 140 mg/kg measured at 12 hrs post-dose; assay type: functional
Homo sapiens [14] = test: Inhibition of gamma secretase-mediated total amyloid beta production in plasma of patient with Alzheimer's disease at 140 mg/kg/day, po for 14 weeks; assay type: functional; settings: 2352 h
[15] = Half life in healthy human at 5 to 50 mg/kg; assay type: ADME, organism-based; set-up: dose 5-50 mg/kg; settings: in vivo
Homo sapiens [16] = test: Inhibition of gamma secretase-mediated total amyloid beta production in healthy human plasma at 5 to 50 mg/kg; assay type: functional; settings: dose mg/kg 5-50
Gamma-secretase [17] = test: Inhibition of gamma secretase-mediated total amyloid beta production in human H4 cells; assay type: cell-based
Gamma-secretase [18] = test: Inhibition of gamma secretase-mediated total amyloid beta production in HEK293 cells; assay type: cell-based, Homo sapiens
[19] = Inhibition of gamma secretase-mediated total amyloid beta production

SMILES: O=C(OC1([C@H]2CCC[C@@H](c3cc(F)cc(F)c3)N2S(=O)(=O)c2ccc(Cl)cc2)CC1)N1CCN(CCO)CC1
- inhibition in vivo at 10 mg/kg (Mus musculus [2]): > 75%

SMILES: C[C@H](NC(=O)Cc1cc(F)cc(F)c1)C(=O)NC1C(=O)N(C)N(C)C(=O)c2ccccc21 (stereo not given in full)
- inhibition in vivo at 200 µmol/kg (Mus musculus [3]): 43%

SMILES: CCCCN(C)C(=O)[C@H](CC1CCCCC1)NC(=O)[C@H](CC(C)C)NC(=O)[C@@H](O)c1ccccc1
- Activity (Mus musculus [4]): 15%

SMILES: CCOC(=O)N1CCC(c2ccccc2OC)(S(=O)(=O)c2ccc(Cl)cc2)CC1
- IC50 (Gamma-secretase [6]): 3500 nM

SMILES: C[C@H](c1ccc(F)cc1CCCC(=O)O)N(c1cc(F)ccc1F)S(=O)(=O)c1ccc(Cl)cc1
- ED50 (Mus musculus [7]): 18 mg/kg

SMILES: O=S(=O)(Cc1cc(F)ccc1F)c1ccc(Cl)cc1
- IC50 [1]: 4410 nM

SMILES: CN1C(=O)[C@@H](NC(=O)[C@H](c2ccc(F)cc2)[C@@H](CO)c2ccc(F)c(F)c2)N=C(c2ccccc2)c2ccccc21
- IC50 [1]: 0.06 nM

SMILES: CCCNS(=O)(=O)N[C@H]1[C@@H]2CC[C@H]1Cc1ccccc1C2
- IC50 [1]: 132 nM

SMILES: CCCNC(=O)OC[C@@H](C)N(c1cc(Cl)ccc1CO)S(=O)(=O)c1ccc(Cl)cc1
- IC50 (Gamma-secretase [6]): 100 nM
- IC50 (Gamma-secretase [9]): 47 nM
- IC50 (Gamma-secretase [10]): 57 nM

SMILES: O=S(=O)(c1ccc(Cl)cc1)C1(c2cc(F)ccc2F)CCCCC1
- IC50 [1]: 3 nM

SMILES: CN1C(=O)[C@@H](NC(=O)[C@H](Cc2ccc(F)c(F)c2)c2ccc(F)cc2)N=C(c2ccccc2)c2ccccc21
- IC50 [1]: 4 nM

SMILES: CCCN1C[C@]2(NS1(=O)=O)[C@@H]1CC[C@H]2Cc2ccccc2C1
- IC50 [1]: 138 nM

Further lines, with some results ahead:

- IC50 [1]: 39 nM
SMILES: O=C(OCC1CCc2ccccc2N1S(=O)(=O)c1ccc(Cl)cc1)N1CCC(N2CCCCC2)CC1 (stereo not given)

- IC50 [1]: 4 nM
- clearance [5]: 2.2 µL/min/mg
SMILES: O=C(NC1CC1)c1ccc(CN([C@@H]2CC(F)(F)CCNC2=O)S(=O)(=O)c2ccc(Cl)cc2)cc1

- IC50 [1]: 0.24 nM
SMILES: O=S1(=O)N[C@@]2(CN1CC(F)(F)F)[C@@H]1CC[C@H]2Cc2cc(/C=C/CN3CCC(C(F)(F)F)CC3)ccc2C1

- IC50 [8]: 100 nM
SMILES: CC[C@H](C)[C@@H](NC(=O)[C@H](NC(=O)[C@H](NC(=O)C(C)(C)NC(=O)CNC(=O)[C@H](NC(=O)OC(C)(C)C)C(C)C)C(C)C)C(C)C)C(=O)NC(C)(C)C(=O)N[C@@H](C(=O)N[C@@H](C(=O)NC(C)(C)C(=O)OC)C(C)C)[C@@H](C)OCc1ccccc1

- IC50 (Gamma-secretase [9]): 62 nM
SMILES: O=S(=O)(N[C@H]1[C@@H]2CC[C@H]1Cc1ccccc1C2)c1ccc(Cl)s1

- IC50 (Gamma-secretase [9]): 38 nM
- IC50 (Gamma-secretase [10]): 38 nM
- IC50 [1]: 15 nM
- half-life [15]: 2.5 h
SMILES: CC(C)[C@H](O)C(=O)N[C@@H](C)C(=O)N[C@@H]1C(=O)N(C)CCc2ccccc21
- inhibition in vivo at 140 mg/kg (Homo sapiens [11]): 73%
- inhibition in vivo at 40 mg/kg (Homo sapiens [12]): 38%
- inhibition in vivo at 140 mg/kg (Homo sapiens [13]): 52%
- inhibition in vivo at 140 mg/kg/day (Homo sapiens [14]): 65%
- inhibition (INH) (Homo sapiens [16]): 40%

- IC50 (Gamma-secretase [17]): 5000 nM
SMILES: CCOC(=O)[C@H](O)[C@H](CC1CCCCC1)NC(=O)[C@H](CC(C)C)NC(=O)/C=C/c1ccccc1

- IC50 (Gamma-secretase [9]): 281 nM
- IC50 (Gamma-secretase [10]): 22 nM
SMILES: CC(C)C[C@H](NC(=O)[C@H](Cc1ccccc1)C[C@@H](O)[C@H](Cc1ccccc1)NC(=O)OC(C)(C)C)C(=O)N[C@@H](Cc1ccccc1)C(N)=O

- CL [5]: 282 µL/min/g
SMILES: CC(C)C[C@H](C(N)=O)N(Cc1ccc2c(c1)OCO2)S(=O)(=O)c1ccc(Cl)cc1

- IC50 (Gamma-secretase [18]): 17000 nM
SMILES: CCC[C@H](C(N)=O)[C@@H](CC(C)C)C(=O)N[C@H]1CCCCN(Cc2cccc(-c3ccc(F)c(Cl)c3)c2)C1=O

- IC50 [19]: 70 nM
SMILES: CC[C@H](C)[C@H](NC(=O)N(Cc1ccccc1)C[C@@H](O)[C@H](Cc1ccccc1)NC(=O)[C@@H](NC(=O)OC(C)(C)C)C(C)C)C(=O)N[C@H](C(=O)OC)C(C)C
